Like-named read-outs stand apart in the source and are kept apart here.

The subject of test [1] is p-ERK in NCI-H441 cells (KRAS G12V mutation). Nature of the test: Cell p-ERK assay (HTRF) in NCI-H441 cells. The format is cell-based, human. The method, boiled down:
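IC50 values derive from four-parameter fitting of p-ERK (T202/Y204) HTRF inhibition, normalized to DMSO and blank controls. The lysates came from cells exposed for 3 h to serial 3.16-fold compound dilutions at 0.1% DMSO, after overnight plating at 10000 AsPC-1 or 20000 NCI-H441 cells per well.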

Test [2] relates to p-ERK in AsPC-1 cells (KRAS G12D mutation). Nature of the test: Cell p-ERK assay (HTRF) in AsPC-1 cells. The format is cell-based, human. Conditions: Homo sapiens, ASPC1, 3 h. The protocol:
AsPC-1 cells were purchased from ATCC, Cat. No. CRL-1682: NCI-H441 cells were purchased from ATCC, Cat. No. HTB-174: RPMI-1640 medium was purchased from Gibco, Cat. No. I1875-093: FBS was purchased from Gibco, Cat. No. 10099-141C: penicillin/streptomycin double-antibiotic solution (PS) was purchased from Gibco, Cat. No. 15140-122: trypsin (containing EDTA) was purchased from Gibco, Cat. No. 25200-072; DMSO was purchased from VWRAMRESCO, Cat. No. 0231-500ML; 96-well cell culture plates were purchased from Corning, Cat. No. 3599: white-bottomed, opaque 96-well plates were purchased from Cisbio, Cat. No. 66PL96025; Advance ERK phospho-T202/Y204 kit was purchased from Cisbio, Cat. No. 64AERPEH; cell counter was purchased from CHEMOMETEC, model: NC-200; microplate reader was purchased from PerkinElmer, model: EnVision.
AsPC-1, a human pancreatic cancer cell strain endogenously containing a KRAS^G12D mutation, was cultured in a complete medium containing RPMI-1640+10% FBS+1% PS. NCI-H441, a human non-small cell lung cancer cell strain endogenously containing a KRAS^G12V mutation, was cultured in a complete medium containing RPMI-1640+10% FBS+1% PS.
The cells were digested with trypsin (containing EDTA), collected in their corresponding complete media, and counted. The density of the cell suspensions was adjusted with their corresponding complete media, and 10000 AsPC-1 cells or 20000 NCI-H441 cells per well were seeded into a 96-well cell culture plate, with the volume of the medium in each well being 80 μL.
The cell culture plate was incubated in an incubator at 37° C. with 5% CO2 overnight. A series of 3.16-fold gradient dilutions of a 1000- compound stock solution were prepared with DMSO, and then diluted 200-fold with the complete medium described above to give 5′ compound stock solutions. On the day after cell seeding, 20 μL of the 5× compound stock solution was added to each cell culture well. As a result, the final concentration of the compound in the cell culture well became 1×, and the DMSO content in the well was 0.1%. In addition to the compound-treated wells described above, cell-containing DMSO control wells were also set. A complete medium containing 0.5% DMSO was added at 20 μL/well. After the mixture was well mixed, the culture plate was incubated in the incubator at 37° C. with 5% CO2 for another 3 h. The medium was then removed from the culture wells, and 50 μL of cell lysis buffer (from Advance ERK phospho-T202,Y204 kit) was added to each well. The mixture was well mixed and incubated for 30 min. Then, 16 μL of the mixture was transferred to a white-bottomed, opaque 96-well assay plate, and separately, 16 μL of cell lysis buffer was added to additional wells (serving as blank wells) in the assay plate. After the transfer was completed, 4 μL of p-ERK HTRF antibody mixture (from Advance ERK phospho-T202/Y204 kit) was added to each well of the assay plate, followed by a 4-hour incubation. The HTRF signal values (RLU) were then measured using a microplate reader, and the inhibition rate of the compound against p-ERK levels was calculated as follows: IR (%)=(RLUDMSO−RLUcompound)/(RLUDMSO−RLUblank)×100%, where RLUDMSO is the average HTRF signal value from the DMSO control well samples, RLUblank is the average HTRF signal value from the blank well samples, and RLUcompound is the HTRF signal value from the compound-treated well samples. Using an XLfit software, the IR (%) values were plotted against the logarithm of the compound concentrations, and the dose-response curves were fitted using the four-parameter method to calculate the IC50 values.
Background: TR-FRET usually uses a lanthanide donor and a delayed reading to cut background.

The mark [3] stands for this setting: Homo sapiens, NCI-H441, 3 h, NCI-H441 cells, 3 h compound incubation, HTRF p-ERK T202/Y204, read-out: H441 p-ERK IC50.
Setting [4] is: AsPC-1 cells, 3 h compound incubation, HTRF p-ERK T202/Y204, read-out: AsPC-1 p-ERK IC50.

With `CCn1c(-c2cc(C#CCN3CCCOCC3)c[n+]([O-])c2C(C)C)c2c3cc(ccc31)-c1csc(n1)C[C@H](NC(=O)[C@H]1[C@H](C)[C@@H]1C)C(=O)N1CCC[C@H](N1)C(=O)OCC(C)(C)C2` (atropisomer, axis not shown; (Ra)) [Compound Z950, (1r,2R,3S)—N-((6^3S,4S,Z)—(Ra)-1^2-(5-(3-(1,4-oxazepan-4-yl)prop-1-yn-1-yl)-2-isopropylpyridin-1-oxide-3-yl)-1^1-ethyl-10,10-dimethyl-5,7-dioxo-6^1,6^2,6^3,6^4,6^5,6^6-hexahydro-1^1H-8-oxa-2(4,2)-thiazola-1(5,3)-indola-6(1,3)-pyridazinacycloundecaphane-4-yl)-2,3-dimethylcyclopropane-1-carboxamide], the values for the IC50 in test [1] (setting [3]) and in test [2] (setting [4]) were 0.16 nM and 0.27 nM, respectively.
The matching figures for `CCn1c(-c2cc(C#CCN3CCC(C#N)CC3)cnc2[C@H](C)OC)c2c3cc(ccc31)-c1csc(n1)C[C@H](Nc1nnc3cc(C)ccn13)C(=O)N1CCC[C@H](N1)C(=O)OCC(C)(C)C2` (atropisomer, axis not shown; (Ra)) [Compound Z959]: 1.01 nM and 4.15 nM.
The corresponding values for `CCn1c(-c2cc(OCCN3CCOCC34CC4)cnc2[C@H](C)OC)c2c3cc(ccc31)-c1csc(n1)C[C@H](NC(=O)C1[C@@H](C)[C@H]1C)C(=O)N1CCC[C@H](N1)C(=O)OCC1(CC1)C2` (stereo partly drawn) [Compound Z385, (1r,2R,3S)—N-((3′S,4′S,Z)-2′-(5-(2-(7-oxa-4-azaspiro[2,5]octan-4-yl)ethoxy)-2-((S)-1-methoxyethyl)pyridin-3-yl)-1-ethyl-5′,7′-dioxospiro[cyclopropane-1,10′-8-oxa-2(4,2)-thiazola-1(5,3)-indola-6(1,3)-pyridazinacycloundecaphan]-4′-yl)-2,3-dimethylcyclopropane-1-carboxamide] are 20.7 nM and 33.5 nM.
As to `CCn1c(-c2cc(C#CCN3CCC3)cnc2[C@H](C)OC)c2c3cc(ccc31)-c1csc(n1)C[C@H](NC(=O)CC1CC1)C(=O)N1CCC[C@H](N1)C(=O)OCC(C)(C)C2` [Compound Z999, N-((6^3S,4S,Z)-1^2-(5-(3-(azetidin-1-yl)prop-1-yn-1-yl)-2-((S)-1-methoxyethyl)pyridin-3-yl)-1^1-ethyl-10,10-dimethyl-5,7-dioxo-6^1,6^2,6^3,6^4,6^5,6^6-hexahydro-1^1H-8-oxa-2(4,2)-thiazola-1(5,3)-indola-6(1,3)-pyridazinacycloundecaphane-4-yl)-2-cyclopropylacetamide], the IC50 – broadly, the concentration that gives 50% inhibition – in test [1] (setting [3]) was 2.16 nM; in test [2] (setting [4]), 3.57 nM.
`CCn1c(-c2cc(C#CCN3CCC(O)(c4cccc(C)[n+]4[O-])CC3)cnc2[C@H](C)OC)c2c3cc(ccc31)-c1csc(n1)C[C@H](NC(=O)[C@H]1[C@H](C)[C@@H]1C)C(=O)N1CCC[C@H](N1)C(=O)OCC(C)(C)C2` (atropisomer, axis not shown; (Ra)) [Compound Z1055, 2-(1-(3-(5-((6^3S,4S,Z)-4-((r,2R,3S)-2,3-dimethylcyclopropane-1-carboxamido)-1^1-ethyl-10,10-dimethyl-5,7-dioxo-6^1,6^2,6^3,6^4,6^5,6^6-hexahydro-1^1H-8-oxa-2(4.2)-thiazola-1(5,3)-indola-6(1.3)-pyridazinacycloundecaphane-12-yl)-(Ra)-6-((S)-1-methoxyethyl)pyridin-3-yl)prop-2-yn-1-yl)-4-hydroxypiperidin-4-yl)-6-methylpyridine 1-oxide]: the IC50 came to 0.19 nM in test [1] (Homo sapiens, NCI-H441, 3 h, read-out: H441 p-ERK IC50(nM)) and 0.32 nM in test [2] (read-out: AsPC-1 p-ERK IC50(nM)).
In the case of `CCn1c(-c2cc(C#CC(=O)N3CCCOCC3)cnc2[C@H](C)OC)c2c3cc(ccc31)-c1csc(n1)C[C@H](NC(=O)[C@H]1[C@H](C)[C@@H]1C)C(=O)N1CCC[C@H](N1)C(=O)OCC(C)(C)C2` [Compound Z810A, (1r,2R,3S)—N-((6^3S,4S,Z)-1^2-ethyl-1^2-(5-(3-(1,4-oxazepan-4-yl)-3-oxoprop-1-yn-1-yl)-2-((S)-1-methoxyethyl)pyridin-3-yl)-10,10-dimethyl-5,7-dioxo-6^1,6^2,6^3,6^4,6^5,6^6hexahydro-1^1H-8-oxa-2(4,2)-thiazola-1(5,3)-indola-6(1,3)-pyridazinacycloundecaphane-4-yl)-2,3-dimethylcyclopropane-1-carboxamide], the IC50 worked out at 0.63 nM in test [1] (NCI-H441 cells, 3 h compound incubation, HTRF p-ERK T202/Y204, read-out: H441 p-ERK IC50) and 1.22 nM in test [2] (setting [4]).

Source of the values: patent publication US20260234165A1, “MACROCYCLIC COMPOUNDS, PREPARATION METHOD THEREFOR, AND USE THEREOF” (GENFLEET THERAPEUTICS (SHANGHAI) INC., priority 2004, published 2026).
